From ChEMBL document CHEMBL1154822, “Synthesis and antiproliferative activity of 7-azaindirubin-3'-oxime, a 7-aza isostere of the natural indirubin pharmacophore” (J Nat Prod, 2009)

Assays:
786-0 = assay: Cytotoxicity against human 786-0 cells assessed as cell growth at 10 uM after 48 hrs by MTT assay; assay type: functional; conditions: 786-0, 48 h, read-out: Activity
ACHN = assay: Cytotoxicity against human ACHN cells assessed as cell growth at 10 uM after 48 hrs by MTT assay; assay type: functional; conditions: read-out: Activity
RXF 393 = assay: Cytotoxicity against human […] cells assessed as cell growth at 10 uM after 48 hrs by MTT assay; assay type: functional; conditions: RXF 393, 48 h, read-out: Activity
TK-10 = assay: Cytotoxicity against human TK10 cells assessed as cell growth at 10 uM after 48 hrs by MTT assay; assay type: functional; conditions: TK-10, 48 h, read-out: Activity
A549 = assay: Cytotoxicity against human A549 cells assessed as cell growth at 10 uM after 48 hrs by MTT assay; assay type: functional; conditions: A549, 48 h, read-out: Activity
HOP-92 = assay: Cytotoxicity against human HOP92 cells assessed as cell growth at 10 uM after 48 hrs by MTT assay; assay type: functional; conditions: HOP-92, 48 h, read-out: Activity
NCI-H226 = assay: Cytotoxicity against human NCI-H226 cells assessed as cell growth at 10 uM after 48 hrs by MTT assay; assay type: functional; conditions: NCI-H226, 48 h, read-out: Activity
NCI-H23 = assay: Cytotoxicity against human NCI-H23 cells assessed as cell growth at 10 uM after 48 hrs by MTT assay; assay type: functional; conditions: NCI-H23, 48 h, read-out: Activity
NCI-H322M = assay: Cytotoxicity against human NCI-H322M cells assessed as cell growth at 10 uM after 48 hrs by MTT assay; assay type: functional; conditions: read-out: Activity
NCI-H460 = assay: Cytotoxicity against human NCI-H460 cells assessed as cell growth at 10 uM after 48 hrs by MTT assay; assay type: functional; conditions: NCI-H460, 48 h, read-out: Activity
NCI-H522 = assay: Cytotoxicity against human NCI-H522 cells assessed as cell growth at 10 uM after 48 hrs by MTT assay; assay type: functional; conditions: NCI-H522, 48 h, read-out: Activity
HCT-116 = assay: Cytotoxicity against human HCT116 cells assessed as cell growth at 10 uM after 48 hrs by MTT assay; assay type: functional; conditions: HCT-116, 48 h, read-out: Activity
HCT-15 = assay: Cytotoxicity against human HCT15 cells assessed as cell growth at 10 uM after 48 hrs by MTT assay; assay type: functional; conditions: HCT-15, 48 h, read-out: Activity
HT-29 = assay: Cytotoxicity against human HT-29 cells assessed as cell growth at 10 uM after 48 hrs by MTT assay; assay type: functional; conditions: HT-29, 48 h, read-out: Activity
KM12 = assay: Cytotoxicity against human KM12 cells assessed as cell growth at 10 uM after 48 hrs by MTT assay; assay type: functional; conditions: KM12, 48 h, read-out: Activity
SW-620 = assay: Cytotoxicity against human SW620 cells assessed as cell growth at 10 uM after 48 hrs by MTT assay; assay type: functional; conditions: SW-620, 48 h, read-out: Activity
BT-549 = assay: Cytotoxicity against human BT549 cells assessed as cell growth at 10 uM after 48 hrs by MTT assay; assay type: functional; conditions: BT-549, 48 h, read-out: Activity
[1] = Cytotoxicity against human Hs 578T cells assessed as cell growth at 10 uM after 48 hrs by MTT assay; assay type: functional; conditions: read-out: Activity
MDA-MB-468 = assay: Cytotoxicity against human MDA-MB-468 cells assessed as cell growth at 10 uM after 48 hrs by MTT assay; assay type: functional; conditions: MDA-MB-468, 48 h, read-out: Activity
T47D = assay: Cytotoxicity against human T47D cells assessed as cell growth at 10 uM after 48 hrs by MTT assay; assay type: functional; conditions: read-out: Activity
IGROV-1 = assay: Cytotoxicity against human IGROV1 cells assessed as cell growth at 10 uM after 48 hrs by MTT assay; assay type: functional; conditions: IGROV-1, 48 h, read-out: Activity
SK-OV-3 = assay: Cytotoxicity against human SKOV3 cells assessed as cell growth at 10 uM after 48 hrs by MTT assay; assay type: functional; conditions: SK-OV-3, 48 h, read-out: Activity
HL-60(TB) = assay: Cytotoxicity against human HL-60(TB) cells assessed as cell growth at 10 uM after 48 hrs by MTT assay; assay type: functional; conditions: HL-60, 48 h, read-out: Activity
MOLT-4 = assay: Cytotoxicity against human MOLT4 cells assessed as cell growth at 10 uM after 48 hrs by MTT assay; assay type: functional; conditions: MOLT-4, 48 h, read-out: Activity
Malme-3M = assay: Cytotoxicity against human MALME-3M cells assessed as cell growth at 10 uM after 48 hrs by MTT assay; assay type: functional; conditions: read-out: Activity
SK-MEL-2 = assay: Cytotoxicity against human SK-MEL-2 cells assessed as cell growth at 10 uM after 48 hrs by MTT assay; assay type: functional; conditions: SK-MEL-2, 48 h, read-out: Activity
SK-MEL-5 = assay: Cytotoxicity against human SK-MEL-5 cells assessed as cell growth at 10 uM after 48 hrs by MTT assay; assay type: functional; conditions: SK-MEL-5, 48 h, read-out: Activity
UACC-257 = assay: Cytotoxicity against human UACC257 cells assessed as cell growth at 10 uM after 48 hrs by MTT assay; assay type: functional; conditions: UACC-257, 48 h, read-out: Activity
SF-539 = assay: Cytotoxicity against human SF539 cells assessed as cell growth at 10 uM after 48 hrs by MTT assay; assay type: functional; conditions: SF-539, 48 h, read-out: Activity
SNB-19 = assay: Cytotoxicity against human SNB19 cells assessed as cell growth at 10 uM after 48 hrs by MTT assay; assay type: functional; conditions: SNB-19, 48 h, read-out: Activity
SNB-75 = assay: Cytotoxicity against human SNB75 cells assessed as cell growth at 10 uM after 48 hrs by MTT assay; assay type: functional; conditions: SNB-75, 48 h, read-out: Activity
[2] = molecular target: Glycogen synthase kinase-3 beta (Homo sapiens) (UniProt P49841); assay: Inhibition of human GSK3-beta assessed as residual enzyme activity at 0.01 uM after 40 mins by scintillation counting
[3] = molecular target: Glycogen synthase kinase-3 beta (Homo sapiens) (UniProt P49841); assay: Inhibition of human GSK3-beta assessed as residual enzyme activity at 0.3 uM after 40 mins by scintillation counting
[4] = molecular target: Cyclin-dependent kinase 1/cyclin B1 (Homo sapiens) (UniProt P06493+P14635); assay: Inhibition of human CDK1/Cyclin B assessed as residual enzyme activity at 0.3 uM after 40 mins by scintillation counting; assay type: protein-complex assay
[5] = molecular target: Cyclin-dependent kinase 2/cyclin A (Homo sapiens) (UniProt P24941+P20248+P78396); assay: Inhibition of human CDK2/Cyclin A assessed as residual enzyme activity at 3 uM after 40 mins by scintillation counting; assay type: protein-complex assay
[6] = molecular target: T1, Cyclin-dependent kinase 5/CDK5 activator 1 (Homo sapiens) (UniProt Q00535+Q15078); assay: Inhibition of human CDK5/p35 assessed as residual enzyme activity at 0.3 uM after 40 mins by scintillation counting; assay type: protein-complex assay
[7] = molecular target: T1, Cyclin-dependent kinase 5/CDK5 activator 1 (Homo sapiens); assay: Inhibition of human CDK5/p35 assessed as residual enzyme activity at 3 uM after 40 mins by scintillation counting; assay type: protein-complex assay

Cyclin-dependent kinase 1/cyclin B1 (Homo sapiens), sequence (P06493 whole entry, looked up): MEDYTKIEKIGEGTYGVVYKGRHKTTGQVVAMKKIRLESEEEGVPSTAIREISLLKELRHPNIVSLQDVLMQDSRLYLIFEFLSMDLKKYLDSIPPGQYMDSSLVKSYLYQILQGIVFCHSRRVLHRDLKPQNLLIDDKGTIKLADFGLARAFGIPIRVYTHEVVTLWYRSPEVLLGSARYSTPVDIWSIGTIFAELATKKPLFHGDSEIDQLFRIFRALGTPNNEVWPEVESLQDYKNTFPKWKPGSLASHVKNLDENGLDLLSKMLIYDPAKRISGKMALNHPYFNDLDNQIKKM
Cyclin-dependent kinase 1/cyclin B1 (Homo sapiens), sequence (P14635 whole entry, looked up): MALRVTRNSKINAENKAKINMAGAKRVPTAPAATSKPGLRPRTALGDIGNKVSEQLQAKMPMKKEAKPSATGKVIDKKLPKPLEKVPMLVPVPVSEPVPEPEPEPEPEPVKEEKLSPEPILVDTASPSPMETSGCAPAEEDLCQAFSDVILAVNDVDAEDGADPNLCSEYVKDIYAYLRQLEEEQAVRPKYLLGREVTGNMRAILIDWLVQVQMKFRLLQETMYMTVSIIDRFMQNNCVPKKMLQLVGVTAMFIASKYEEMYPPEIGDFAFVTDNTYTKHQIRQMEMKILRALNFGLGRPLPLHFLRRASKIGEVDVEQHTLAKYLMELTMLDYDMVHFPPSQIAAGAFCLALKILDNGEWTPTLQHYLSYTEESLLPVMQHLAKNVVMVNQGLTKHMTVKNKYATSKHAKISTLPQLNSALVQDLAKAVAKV
Glycogen synthase kinase-3 beta (Homo sapiens), sequence (P49841 whole entry, looked up): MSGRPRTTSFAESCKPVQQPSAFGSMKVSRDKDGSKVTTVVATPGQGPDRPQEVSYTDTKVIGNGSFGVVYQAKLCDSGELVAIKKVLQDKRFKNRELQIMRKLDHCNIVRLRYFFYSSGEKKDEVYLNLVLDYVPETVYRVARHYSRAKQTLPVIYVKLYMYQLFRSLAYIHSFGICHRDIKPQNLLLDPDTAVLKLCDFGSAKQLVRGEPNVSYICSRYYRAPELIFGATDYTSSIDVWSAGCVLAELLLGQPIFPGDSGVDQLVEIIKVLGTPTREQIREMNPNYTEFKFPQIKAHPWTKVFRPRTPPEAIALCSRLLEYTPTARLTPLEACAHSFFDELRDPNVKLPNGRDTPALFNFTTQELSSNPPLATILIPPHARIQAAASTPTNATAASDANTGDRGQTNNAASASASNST

Row | SMILES | growth at 10 µM (786-0) [%] | growth at 10 µM (ACHN) [%] | growth at 10 µM (RXF 393) [%] | growth at 10 µM (TK-10) [%] | growth at 10 µM (A549) [%] | growth at 10 µM (HOP-92) [%] | growth at 10 µM (NCI-H226) [%] | growth at 10 µM (NCI-H23) [%] | growth at 10 µM (NCI-H322M) [%] | growth at 10 µM (NCI-H460) [%] | growth at 10 µM (NCI-H522) [%] | growth at 10 µM (HCT-116) [%] | growth at 10 µM (HCT-15) [%] | growth at 10 µM (HT-29) [%] | growth at 10 µM (KM12) [%] | growth at 10 µM (SW-620) [%] | growth at 10 µM (BT-549) [%] | growth at 10 µM [1] [%] | growth at 10 µM (MDA-MB-468) [%] | growth at 10 µM (T47D) [%] | other results
1 | CN1C(=O)/C(=C2/C(=O)N(C)c3ncccc32)c2cccnc21 | 94.5 | 94.6 | 101 | 94.4 | 101 | 108 | 102 | 103 | 96.5 | 121 | 98 | 90.4 | 96 | 99.5 | 110 | 109 | 81.8 | 115 | 95.5 | 109 | growth at 10 µM (IGROV-1): 52.2%; growth at 10 µM (SK-OV-3): 111%; growth at 10 µM (HL-60(TB)): 183%; growth at 10 µM (MOLT-4): 127%; growth at 10 µM (Malme-3M): 91.5%; growth at 10 µM (SK-MEL-2): 83.5%; growth at 10 µM (SK-MEL-5): 102%; growth at 10 µM (UACC-257): 102%; growth at 10 µM (SF-539): 117%; growth at 10 µM (SNB-19): 99.4%; growth at 10 µM (SNB-75): 75.5%; Activity [2]: 94%; Activity [3]: 105%; Activity [4]: 88%; Activity [5]: 109%; Activity [6]: 101%; Activity [7]: 84%
2 | O=C1Nc2ncccc2/C1=C1/Nc2ccccc2C1=O | 84.1 | 51.5 | 71.2 | 56.4 | 82.3 | 96.9 | 89 | 76 | 79.7 | 47.7 | 76.3 | 48.5 | 77.9 | 93.8 | 89.5 | 102 | 70.6 | 72.5 | 42.8 | 48.4 | growth at 10 µM (IGROV-1): -40.9%; growth at 10 µM (SK-OV-3): 89.5%; growth at 10 µM (HL-60(TB)): 173%; growth at 10 µM (MOLT-4): 85.3%; growth at 10 µM (Malme-3M): 139%; growth at 10 µM (SK-MEL-2): 43.4%; growth at 10 µM (SK-MEL-5): 75.4%; growth at 10 µM (UACC-257): 96.5%; growth at 10 µM (SF-539): 90.9%; growth at 10 µM (SNB-19): 96.4%; growth at 10 µM (SNB-75): 68.1%; Activity [2]: 96%; Activity [3]: 93%; Activity [4]: 88%; Activity [5]: 64%; Activity [6]: 82%; Activity [7]: 39%
3 | O=C1Nc2ncccc2/C1=C1/Nc2ccccc2/C1=N\O | 43.4 | 22.6 | 29.4 | 40.3 | 46.6 | 54 | 78.6 | 89.7 | 30.7 | 52.2 | 47.6 | 36.9 | 33.9 | 102 | 15 | 82.8 | 45.2 | -9.72 | 28.4 | 49.1 | growth at 10 µM (IGROV-1): -25.3%; growth at 10 µM (SK-OV-3): 6.5%; growth at 10 µM (HL-60(TB)): 125%; growth at 10 µM (MOLT-4): 40.8%; growth at 10 µM (Malme-3M): 91%; growth at 10 µM (SK-MEL-2): 14.7%; growth at 10 µM (SK-MEL-5): 72.3%; growth at 10 µM (UACC-257): 92.6%; growth at 10 µM (SF-539): 50.3%; growth at 10 µM (SNB-19): 96.5%; growth at 10 µM (SNB-75): 31.2%; Activity [2]: 88%; Activity [3]: 64%; Activity [4]: 105%; Activity [5]: 76%; Activity [6]: 65%; Activity [7]: 19%
